{"source": "patent US8158623B2", "about": "“Heptacyclic compounds and the pharmaceutical uses thereof for preventing and treating diabetes and metabolic syndrome” (Shanghai Institute of Materia Medica Chinese Academy of …, priority 2007, dated 2012)", "key": {"[1]": {"tested_on": "Acetyl CoA Carboxylase (ACC)", "experiment": "Phosphorylation of ACC in HepG2 cell (Western blot)", "format": "cell-based, Human", "conditions": "HepG2, 50 uM, 5 minutes, P<0.01 or P<0.05", "method": "(§1) Human hepatoma carcinoma cell strain (HepG2, purchased from the cell bank of Shanghai Institute of Cell Biology of Chinese Academy) was used. The Human hepatoma carcinoma cells were passaged by 0.1% pancreatin/0.02% EDTA digestion, and cultured in a incubator at 37° C. using MEM culture medium containing 10% FBS, under 5% CO2/95%.\n(§2) HepG2 cells were cultured in 6-well plates for 48 hours until 70%-80% confluence. Serum starvation was started by changing medium with MEM containing 0.5% BSA. After starvation for 6 hours, cells were treated with the compounds (final concentration of 50 uM, containing 0.25% DMSO) for 5 minutes. The culture medium was discarded, and cells were harvested and washed for twice with pre-cooled PBS. The washing liquid was discarded, and any residual PBS was blotted dry. DMSO without heptacyclic compounds was used as control.\n(§3) Extraction of total cellular protein: 150 μl/well homogenizing buffer (137 mM NaCl, 2.7 mM KCl, 1 mM MgCl2, 0.5 mM Na3VO4, 1% Triton X-100, 10% Glycerol, 20 mM Tris-HCl pH 7.8, 1 ug/ml Leupeptin, 0.2 mM PMSF, 10 mM NaF, 1 ug/ml Aprotinin, 1 mM EDTA, 1 mM DTT, 5 mM Sodium pyrophosphate, 1 mM Benzamidine) was added. Cells were collected into a 1.5 ml centrifuge tube using cell scraper. Cells were homogenized using sonicator (5 W of power) for 2 times (3 seconds per time), and shaken on a shaker for 1 hour. Supernatant (i.e., total cellular protein) was collected by centrifuging at 14000 rpm for 15 min at 4° C., and stored at −70° C. until use. After the protein concentration was determined by Bradford method, the supernatant was formulated as the loading sample with final concentration of 0.6 mg/ml. The whole preparation process was performed at 4° C.\n(§4) Protein Electrophoresis: After being treated at 95° C. for 5 min, the loading sample was loaded (15 μg protein/lane). The protein was separated on 7.5% SDS-acrylamide gel for 1-2 hours under the voltage of 80-120 V.\n(§5) Electrotransferring the protein and blocking the membrane: After electrophoresis was finished, the protein was transferred to PVDF membrane using semi-dry transferring slot based on 0.8 mA/cm^2 membrane area under the electric current of 80 mA for 2 hours. After that, the membrane was shaken for 2 hours with 7.5% skim milk/TTBS to block the membrane.\n(§6) Antigen-antibody reaction: After the blocking process was finished, the membrane was incubated with primary antibody (antibody against phosphorylated ACC (P-ACC) and antibody against phosphorylated AMPK (P-AMPK), all purchased from Cell signaling (USA), with the working concentration of 1:1000) overnight at 4° C. The membrane was removed, and the primary antibody was recovered. The membrane was washed 5 times, each for 10 min in TTBS. The membrane was shaken for 2 hours with the secondary antibody (horseradish peroxidase-conjugated goat-anti-rabbit IgG antibody, purchased from Bio-rad (USA), with the working concentration of 1:5000) at room temperature. The secondary antibody was discarded. The membrane was washed 5 times, each for 10 min in TTBS in order to remove the unbound secondary antibody.\n(§7) ECL exposure and development: Luminescent agents, ECL 1, 2, were mixed homogeneously, and incubated with the membrane for 3-5 min. The membrane was removed, wrapped in preservative film, and transferred into dark room for exposure. After exposure with X-film, the film was developed, washed, recorded and conserved.\n(§8) Semi-quantitative analysis was performed through optical density scan using computer image analysis system. Grey level of the protein expression was calculated. The target grey level was divided by the grey level of internal standard, and a histogram was plotted, taking the normal group as 1 unit."}, "[2]": {"tested_on": "3T3-L1 adipocytes", "experiment": "Glucose uptake in 3T3-L1 adipocytes (3H-labelled 2-deoxyglucose)", "format": "cell-based", "method": "The effect of the compounds on baseline or insulin-stimulated glucose uptake was evaluated, using the model of glucose uptake in 3T3-L1 adipocytes.\nAdipose tissue is the target of glucose metabolism in vivo. The sensitivity for insulin and availability of glucose in adipose tissues are tightly associated with the insulin resistance. The transportation of glucose into adipocytes is a rate-limiting step for the glucose metabolism, and also an important indicator for evaluating the sensitivity for insulin in adipose tissue. 3T3-L1 is a kind of pre-adipocyte, and can become adipocyte after differentiated completely. Therefore, 3T3-L1 is a desirable model for the glucose transport.\nPre-adipocyte, 3T3-L1 was induced to differentiate under certain conditions. After 3T3-L1 differentiated into adipocytes, the compounds of interest with different concentrations and DMSO (used as control) can be added and incubated with the adipocytes for different periods, then the glucose uptake could be determined. For evaluating the ability for a compound to stimulate glucose uptake, the baseline and insulin-induced glucose uptake were determined, and the increase in baseline and insulin-induced glucose uptake upon treatment of the compounds as compared with control group (with 0.1% DMSO) is calculated, based on the ^3H-labelled 2-deoxyglucose inside the cells.\n3T3-L1 cells purchased from Karolinska Institute (Sweden) were cultured in DMEM medium containing 10% fetal calf serum at 37° C., under 5% CO2. The cells were passaged every 3-4 days. The cells were inoculated into 12-well plate. Upon confluence, culture medium containing 0.5 mM 3-isobutyl-1-methylxanthine, 0.25 μM dexamethasone and 5 μg/ml insulin was added and cultured for 3 days. Then, the culture medium was replaced by a medium containing 5 μg/ml insulin and further cultured for 3 days. The insulin was removed, and the cells had differentiated completely into mature adipocytes after 2 days which could be used to determine the glucose uptake.\n23 compounds chosen by the inventors were added into the culture medium of adipocytes in a dose of 10 μM. After incubation for 2 h, the effect of the compounds on glucose uptake in 3T3-L1 cells was observed. Culture medium without compounds was used as negative control. The control group only supplemented with insulin and the experiment group supplemented with compounds plus insulin were also employed to observe the effect of the compounds on glucose uptake."}, "[3]": {"tested_on": "ob/ob mice", "experiment": "Fasting blood glucose in ob/ob mice, several heptacyclic compounds, 8 days", "format": "in vivo", "method": "Genetic spontaneous diabetes ob/ob mice were purchased from Jackson (USA), and maintained in a SPF facility (temperature: 22-24° C., humidity: 45-80%, illumination: 150-300 Lx, 12/12-hour light/dark cycle). Fasting blood glucose was determined for 3 days continuously when the mice were 7 weeks old. The mice were grouped into the treatment group and the control group (6 animals per group) according to the results determined. The treatment groups were administered orally with compound E9, G0 and F7 (psoromic acid) (100 mg/kg), and the control group was administered orally with a solution of 0.1% Tween 80 (blank control), once daily for 8 days. Fasting blood glucose in mice was determined at the end of experiment."}, "[4]": {"tested_on": "AMP-Activated Protein Kinase (AMPK)", "experiment": "Phosphorylation of AMPK in HepG2 cell (Western blot)", "format": "cell-based, Human", "conditions": "HepG2, 50 uM, 5 minutes, P<0.01 or P<0.05", "method": "as §1, §2, §3, §4, §5, §6, §7, §8"}, "[5]": {"tested_on": "ob/ob mice", "experiment": "Hypoglycemic effect of the combination of F7 with Glibenclamide", "format": "in vivo", "conditions": "Glibenclamide 25 mg/kg oral, with or without F7 50 mg/kg oral pretreatment for 10 days", "method": "(§9) Genetic spontaneous diabetes ob/ob mice were purchased from Jackson (USA), and maintained in a SPF facility (temperature: 22-24° C., humidity: 45-80%, illumination: 150-300 Lx, 12/12-hour light/dark cycle). Fasting blood glucose was determined daily for 3 days continuously when the mice were 7 weeks old. The mice were grouped into the pretreatment group of Compound F7 and non-pretreatment group (16 animals per group) according to the results determined. The groups were administered orally with compound F7 (50 mg/kg) or a solution of 0.1% Tween 80 respectively, once daily for 10 days. The pretreatment group and the non-pretreatment group were divided into two subsets (8 animals per subset) respectively, and subcutaneously injected with insulin (0.6 U/kg) or orally administered with Glibenclamide (25 mg/kg) respectively. Then, blood glucose levels were measured at different time points and the percentage of change in blood glucose level was calculated."}, "[6]": {"tested_on": "ob/ob mice", "experiment": "Hypoglycemic effect of the combination of F7 with insulin", "format": "in vivo", "conditions": "insulin 0.6 U/kg s.c., with or without F7 50 mg/kg oral pretreatment for 10 days", "method": "as §9"}}, "data": [{"compound": "CCOCc1c(O)c(C(=O)O)c(C)c2c1OC(=O)c1c(C)cc(O)c(C=O)c1O2", "note": "[Compound G0, 9-Ethoxymethyl-4-formyl-3,8-dihydroxy-1,6-dimethyl-11-oxo-11H-dibenzo[b,e][1,4]dioxepine-7-carboxylic acid]", "values": [{"measurement": "Level of phosphorylation for ACC protein versus DMSO control", "setting": "[1]", "value": "improved significantly"}, {"measurement": "Glucose uptake, Mean, Compound + Insulin Group (Control Group = 1.000)", "setting": "[2]; 10 μM, 2 h incubation, with insulin, relative to control without insulin", "value": 1.297}, {"measurement": "fold induction at 10 µM", "setting": "[2]; Mus musculus, 3T3-L1, 2 h incubation, baseline (without insulin), relative to control, read-out: Glucose uptake, Mean, Compound Group (Control Group = 1.000)", "value": 1.22}, {"measurement": "Fasting Blood Glucose", "setting": "[3]; before administration", "value": "11.95 ± 1.49", "unit": "mM"}, {"measurement": "Fasting blood glucose change in words", "setting": "[3]; dosed continuously for 8 days, P<0.05", "value": "reduced statistically significant"}, {"measurement": "Fasting Blood Glucose", "setting": "[3]; oral 100 mg/kg once daily, after 8 days treatment", "value": "8.07 ± 1.07", "unit": "mM"}, {"measurement": "Level of phosphorylation for AMPK protein versus DMSO control", "setting": "[4]", "value": "increased significantly"}]}, {"compound": "COc1ccc(Cl)cc1C(=O)NCCc1ccc(S(=O)(=O)NC(=O)NC2CCCCC2)cc1", "note": "[Glibenclamide]", "values": [{"measurement": "The percentage of change in blood glucose level", "setting": "[5]; 1 h", "value": "90.2 ± 7.3", "unit": "%"}, {"measurement": "The percentage of change in blood glucose level", "setting": "[5]; 2 h", "value": "76.7 ± 10.2", "unit": "%"}, {"measurement": "The percentage of change in blood glucose level", "setting": "[5]; 3 h", "value": "68.0 ± 7.3", "unit": "%"}]}, {"compound": "Insulin", "values": [{"measurement": "The percentage of change in blood glucose level", "setting": "[6]; 15 minutes", "value": "113.9 ± 8.3", "unit": "%"}, {"measurement": "The percentage of change in blood glucose level", "setting": "[6]; 40 minutes", "value": "96.3 ± 18.0", "unit": "%"}, {"measurement": "The percentage of change in blood glucose level", "setting": "[6]; 90 minutes", "value": "90.6 ± 14.7", "unit": "%"}, {"measurement": "The percentage of change in blood glucose level", "setting": "[6]; 120 minutes", "value": "101.6 ± 11.2", "unit": "%"}]}]}
